“And” between values parts separate entries of the source, which are not always exact repeats. Identical values can stand only once. Like-named read-outs stand apart in the source and are kept apart here. Positions of bridges follow the written chain, without caps; N, C: chain ends. Non-standard residues stand in square brackets, D forms with d. Residues, ends and D or L forms follow the SMILES beside them. *: point of attachment. Phe(3,4,5-F3) = N[C@@H](Cc1cc(F)c(F)c(F)c1)C(=O)O; Myristoyl = CCCCCCCCCCCCCC(=O)*; Nle = CCCC[C@H](N)C(=O)O; Abu = CC[C@H](N)C(=O)O; Aib = CC(C)(N)C(=O)O

The target in assay [1] is T1, human apelin receptor (Homo sapiens, UniProt P35414).
T1 sequence (P35414 1-380): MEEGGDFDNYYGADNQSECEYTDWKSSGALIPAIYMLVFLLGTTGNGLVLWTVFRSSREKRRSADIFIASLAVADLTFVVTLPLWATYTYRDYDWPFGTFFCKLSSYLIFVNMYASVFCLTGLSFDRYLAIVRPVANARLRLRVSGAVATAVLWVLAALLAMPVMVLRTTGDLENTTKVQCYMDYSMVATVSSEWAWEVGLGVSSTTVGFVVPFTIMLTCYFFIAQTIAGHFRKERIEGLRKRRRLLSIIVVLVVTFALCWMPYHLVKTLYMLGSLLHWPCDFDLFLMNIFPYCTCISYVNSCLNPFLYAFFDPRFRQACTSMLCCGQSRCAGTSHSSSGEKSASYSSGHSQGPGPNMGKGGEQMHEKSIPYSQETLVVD
The assay can be described thus: Cerep radioligand binding assay on CHO-K1 cells expressing the human apelin receptor. Set-up: host or cells: CHO-K1. The procedure: Binding assays were performed by Cerep (Celle L'Evescault, France) on Chinese Hamster Ovary (CHO-K1) cells expressing the human apelin receptor. […] The results were expressed as a percent of control specific binding ((measured specific binding/control specific binding)×100) and as a percent inhibition of control specific binding (100−((measured specific binding/control specific binding)×100)) obtained in the presence of the test compounds. […] The inhibition constants (Ki) were calculated using the Cheng Prusoff equation (Ki=IC50/(1+(L/KD)), where L=concentration of radioligand in the assay, and KD=equilibrium dissociation constant of the radioligand for the receptor).

The test system of assay [2] is human forearm. The assay can be described thus: Human forearm studies. It is filed as in vivo.
In assay [3] the target is T1, human apelin receptor. The assay can be described thus: DRx β-arrestin assay (PathHunter eXpress AGTRL1 CHO-K1). The assay is classed as cell-based. Set-up: host or cells: CHO-K1. As to conditions: for Kb: DRx β-Arrestin pA2; for bias between cAMP and β-arrestin pathway inhibition: comparison of β-arrestin and cAMP pA2 of Table 3. How it is done:
(§1) cAMP (cAMP Hunter™ eXpress AGTRL1 CHO-K1 GPCR Assay, DiscoverX Corporation, Ltd. Birmingham, UK) and β-arrestin (PathHunter® eXpress AGTRL1 CHO-K1 β-Arrestin GPCR Assay, DiscoverX Corporation, Ltd. Birmingham, UK) assays were performed according to the manufacturer's instructions. The cAMP assay measures the canonical signalling pathway through the G-protein. The β-arrestin assay measures the alternative signalling pathway and receptor internalisation.
For recruitment of β-arrestin, CHO-K1 cells artificially expressing the human apelin receptor were seeded in Cell Plating medium into 96-well plates and incubated for 48 hours at 37° C. in 5% CO2. Concentration response curves were constructed to test peptides (1 pmol/L-30 μmol/L) which were diluted in Cell Plating medium and added to the cells for 90 minutes at 37° C. If no response was obtained then test peptides were investigated as antagonists. […] Detection reagents were then added for a 2-hour incubation at room temperature. […] If no agonist response was obtained, test compounds were investigated for antagonist activity by repeating [Pyr]apelin-13 concentration response curves in the absence and presence of a single concentration (1-30 μmol/L of test peptide). Data were analysed as described for the cAMP assay using the Gaddum/Schild EC50 function in GraphPad Prism 6 to determine values of pA2.

Assay [4] deals with T1, human apelin receptor. As to the kind of experiment: Competition binding in homogenate of human left ventricle (HLV). How it is done:
Equilibrium was broken by centrifugation (20,000 g for 10 min, 4° C.). Pellets were washed with Tris-HCl buffer (50 mmol/L, pH 7.4, 4° C.), re-centrifuged and bound radioactivity in the final pellets counted. Data from triplicate experiments were analysed using the iterative non-linear curve fitting programs EBDA and LIGAND (KELL package, Biosoft, UK) or GraphPad Prism 6 to derive values of affinity (expressed as either the equilibrium dissociation constant KD or the negative log10 of the dissociation constant, pKi±sem) and receptor density (BMAX±sem in fmoles bound per mg protein).

The subject of assay [5] is glioblastoma. Particulars: ref. [60], cited from earlier work; for anti-tumor / anti-cancer effects in glioblastoma: models of glioblastoma.
Assay [6] addresses T1, human apelin receptor. The assay can be described thus: DRx cAMP assay (cAMP Hunter eXpress AGTRL1 CHO-K1), forskolin-induced cAMP accumulation. Particulars: for Kb: DRx cAMP pA2, antagonism of [Pyr1]apelin-13 inhibition of forskolin-stimulated cAMP; for DRx cAMP pA2: antagonism of [Pyr1]apelin-13 inhibition of forskolin-stimulated cAMP. Set-up: host or cells: CHO-K1. It is filed as cell-based. The procedure: Antagonist activity at the apelin receptor was measured in two assays.
as §1
Cells were then incubated with a mixture of Lysis Buffer, cAMP Buffer D and Detection Reagents for 1 hour at room temperature, followed by a 3 hour incubation with cAMP Reagent A at room temperature. Chemiluminescence was read using the LumiLITE™ Microplate Reader (DiscoverX). Concentration-response data for agonists, measured in relative light units (RLU), were analysed using a 4 parameter logistic equation in GraphPad Prism 6 (La Jolla, CA, USA) to determine values of potency expressed as the pD2 value (negative logo of the EC50 (where EC50 is the concentration producing half maximal response)), and maximum response (EMAX). Mean data from replicate experiments were normalised as percentage inhibition of forskolin-stimulated cAMP production.
Background: Cyclic AMP is a second messenger, typically raised through Gs and lowered through Gi signalling.

The subject of assay [7] is endothelium-denuded saphenous vein. As to conditions: human tissue, ref. [15]; cited from earlier work.
For assay [8], the target named is T1, human apelin receptor. Particulars: human cardiac tissue, ref. [15]; cited from earlier work.
Where [9] appears, read: [Glp65,Nle75,Tyr77][125I]apelin-13, read-out: Ki (binding affinity at the apelin receptor, Cerep).

In the case of `CC(C)C[C@@H]1NC(=O)[C@H](CCCNC(=N)N)NC(=O)[C@@H]2CCCN2C(=O)[C@H](CCCNC(=N)N)NC(=O)[C@@H](NC(=O)[C@H](Cc2c[nH]cn2)NC(=O)[C@H](CCCCN)NC(=O)[C@@H]2CSSC[C@H](N)C(=O)N[C@@H](CCCNC(=N)N)C(=O)N3CCC[C@H]3C(=O)N[C@@H](CCCNC(=N)N)C(=O)N[C@@H](CC(C)C)C(=O)N2)CSSC[C@@H](C(=O)O)NC1=O` [MM54, cyclo(1-6)CRPRLC-KH-cyclo(9-14)CRPRLC] (H-CRPRLCKHCRPRLC-OH; disulfide 1-6, 9-14; N-terminus and C-terminus assumed), the Ki in assay [1] (Ki (binding affinity at the apelin receptor, Cerep), [Glp65,Nle75,Tyr77][125I]apelin-13) worked out at 82 nM. Also, in assay [2], the “functional activity in human forearm studies” value is “functional agonist activity indicated by vasodilation”. Also, in assay [3], the “DRx β-Arrestin pA2” value is listed as 6.63; the Kb is 117 nM and 234 nM. Besides, the Ki in assay [4] (HLV pKi) was 275 nM and 355 nM. Further, the “combination with the anti-cancer compound tomozolomide” value in assay [5] (model of glioblastoma) was “synergistic properties”. The “anti-tumor / anti-cancer effects in glioblastoma” value in assay [5] is listed as “anti-tumor properties”.
Consider `CCCC[C@H](NC(=O)[C@H](CCCNC(=N)N)NC(=O)C(C)(C)NC(=O)[C@H](CCCNC(=N)N)NC(=O)[C@H](CS)NC(=O)[C@H](Cc1c[nH]cn1)NC(=O)[C@H](CCCCN)NC(=O)[C@H](CS)NC(=O)[C@H](CCCC)NC(=O)[C@H](CCCNC(=N)N)NC(=O)[C@@H]1CCCN1C(=O)[C@H](CCCNC(=N)N)NC(=O)[C@@H](N)CS)C(=O)N[C@@H](Cc1cc(F)c(F)c(F)c1)C(=O)O` [MM193, CRPR-Nle-CKHCR-Aib-R-Nle-(3,4,5-trifluorophenylalanine)] (H-CRPR[Nle]CKHCR[Aib]R[Nle][Phe(3,4,5-F3)]-OH), for which the Ki in assay [1] (setting [9]) is 19 nM; in assay [4] (read-out: HLV pKi (converted)), 759 nM. The “antagonism of [pyr1]apelin-13 inhibition of forskolin stimulated cAMP accumulation” value in assay [6] (1 μM, FIG. 1b) is “antagonised by addition of MM193 in a competitive manner”. Moreover, the Kb in assay [6] is 42.7 nM and 77.6 nM; in assay [3], 20.9 nM. In addition, the “DRx cAMP pA2” value in assay [6] is reported as 7.37. Besides, the “DRx β-Arrestin pA2” value was 7.68 in assay [3] and “pA2 = 7.68” in assay [3] (cho-k1 cells, 90 min). Moreover, in assay [3] (1 μM, FIG. 1a), the “antagonism of [pyr1]apelin-13 mediated β-arrestin recruitment” value is “antagonised by addition of MM193 in a competitive manner”. The “anti-tumor / anti-cancer effects in glioblastoma” value in assay [5] is given as “significant anti-cancer effects”.
As to `CCCC[C@H](NC(=O)[C@H](CCCNC(=N)N)NC(=O)C(C)(C)NC(=O)[C@H](CCCNC(=N)N)NC(=O)[C@H](CC)NC(=O)[C@H](Cc1c[nH]cn1)NC(=O)[C@H](CCCCN)NC(=O)[C@H](CS)NC(=O)[C@H](CCCC)NC(=O)[C@H](CCCNC(=N)N)NC(=O)[C@@H]1CCCN1C(=O)[C@H](CCCNC(=N)N)NC(=O)[C@@H](N)CS)C(=O)N[C@@H](Cc1cc(F)c(F)c(F)c1)C(=O)O` [MM299, CRPR-Nle-CKH-Abu-R-Aib-R-Nle-(3,4,5-trifluorophenylalanine)] (H-CRPR[Nle]CKH[Abu]R[Aib]R[Nle][Phe(3,4,5-F3)]-OH), the Ki in assay [1] (setting [9]) is 6.1 nM. Also, the Kb is 47.9 nM and 112 nM in assay [6]; 7.94 nM and 2.95 nM in assay [3].
Take `CCCCCCCCCCCCCC(=O)N[C@@H](CS)C(=O)N[C@@H](CCCNC(=N)N)C(=O)N1CCC[C@H]1C(=O)N[C@@H](CCCNC(=N)N)C(=O)N[C@@H](CCCC)C(=O)N[C@@H](CS)C(=O)N[C@@H](CCCCN)C(=O)N[C@@H](Cc1c[nH]cn1)C(=O)N[C@@H](CS)C(=O)N[C@@H](CCCNC(=N)N)C(=O)NC(C)(C)C(=O)N[C@@H](CCCNC(=N)N)C(=O)N[C@@H](CCCC)C(=O)N[C@@H](Cc1cc(F)c(F)c(F)c1)C(=O)O` [MM300, Myristoyl-CRPR-Nle-CKHCR-Aib-R-Nle-(3,4,5-trifluorophenylalanine)] (Myristoyl-CRPR[Nle]CKHCR[Aib]R[Nle][Phe(3,4,5-F3)]-OH; C-terminus assumed): in assay [1] (setting [9]), the Ki was 13 nM. In addition, in assay [6], the “DRx cAMP pA2” value was 9.66. Moreover, in assay [3], the “DRx β-Arrestin pA2” value was 8.96; the Kb was 1.1 nM and 3.16 nM; the “bias between cAMP and β-arrestin pathway inhibition” value was “bias towards either C-AMP”.
Take `CCCC[C@H](NC(=O)[C@H](CCCNC(=N)N)NC(=O)C(C)(C)NC(=O)[C@H](CCCNC(=N)N)NC(=O)[C@H](CS)NC(=O)[C@H](CCCCN)NC(=O)[C@H](Cc1c[nH]cn1)NC(=O)[C@H](CS)NC(=O)[C@H](CCCC)NC(=O)[C@H](CCCNC(=N)N)NC(=O)[C@@H]1CCCN1C(=O)[C@H](CCCNC(=N)N)NC(=O)[C@@H](N)CS)C(=O)N[C@@H](Cc1cc(F)c(F)c(F)c1)C(=O)O` [MM302, CRPR-Nle-CHKCR-Aib-R-Nle-(3,4,5-trifluorophenylalanine)] (H-CRPR[Nle]CHKCR[Aib]R[Nle][Phe(3,4,5-F3)]-OH; N-terminus and C-terminus assumed): the Ki in assay [1] (setting [9]) worked out at 17 nM. The Kb in assay [6] is 20 nM and 55 nM. Further, in assay [3], the Kb was 2.69 nM and 2.29 nM; the “bias between cAMP and β-arrestin pathway inhibition” value is given as “almost a log unit of bias towards inhibition of the β-arrestin pathway”.
Turning to “Apelin-13(F13A): apelin-13 analogue reported as a functional antagonist, may act as an apelin receptor agonist in vitro”, the “constriction of endothelium-denuded saphenous vein” value in assay [7] was “effectively constricts”. In assay [8], the “competition for binding with [125I]-(Pyr1)apelin-13 in the left ventricle” value is given as “competes for binding”.
